The text below walks through data of paper PMC9344964 (Journal of Enzyme Inhibition and Medicinal Chemistry, 2022).

One data set is described as follows: MTT cytotoxicity assay. Format: cell-based. Particulars: African green monkey, Vero E6 cells, read-out: cytotoxic concentration 50 (CC50). The protocol: It was performed to calculate the newly synthesised candidates’ minimum concentrations that cause 50% toxicity to the cells (CC50). First, the newly synthesised derivatives were dissolved in ddH2O with 10% DMSO and then diluted with Dulbecco's Modified Eagle's Medium (DMEM) to the desired concentrations. The MTT assay method was performed with minor changes using VERO-E6 cells (ready for the virus propagation) to be applied in other experiments. The complete methodology was elucidated in the Supplementary Data (SI2).
(§1) SI 2. MTT cytotoxicity assay.
(§2) The VERO-E6 cells were kept in 96 well-plates at 37°C in 5% CO2 for 24 h to be cultivated. The tested compounds were diluted with DMEM in HA plate in triplicates as mentioned before and then poured onto the prepared cells after washing twice by sterile 1x phosphate buffer saline (PBS). 24 h later, the cell monolayers were washed three times with sterile 1x PBS after removal of the supernatant followed by the addition of the MTT solution into each individual well (20 µl of 5 mg/ml stock solution) which was kept at 37°C for 4 h. The formed formazan crystals were dissolved using an acidified isopropanol (200 µl) and the absorbance of their solutions were recorded through a multi-well plate reader (λmax = 540 nm) against a reference wavelength (λmax= 620 nm). Finally, the cytotoxicity % of the tested compounds compared to the control cells (untreated cells) was calculated as follow:
(§3) % Cytotoxicity = (the absorbance of untreated cells − absorbance of treated cells) X 100 […]
(§4) SI 3. Inhibitory concentration 50 (IC50) determination.
(§5) The Vero-E6 cells (2.4×104) were kept overnight at 37°C in 5% CO2 inside 96-well tissue culture plates. 1x PBS solution was used to wash the cell monolayers for only one time which were then treated with different serial dilutions of the examined compounds together with a fixed dilution from the virus (hCoV-19/Egypt/NRC-03/2020 (Accession Number on GSAID: EPI_ISL_430820)) following TCID50 test and kept at RT for 1 h before starting incubation. Also, the cell monolayers were subjected to DMEM (100 μl) with different concentrations of the test samples and virus and left at 37°C for 72 h in a 5% CO2. Then, 4% paraformaldehyde (100 μl) was used for cell fixation (2 h) followed by the staining step with 0.1% crystal violet in distilled H2O (50 μl) at RT for 15 min. Absolute CH3OH (100 μl) was added to dissolve the crystal violet dye per well to measure the optical density of the produced color using Anthos Zenyth 200rt plate reader at 570 nm.1 The IC50 value for each tested compound which is corresponding to its minimum concentration required to reduce the virus infectivity by 50% in comparison to the virus control was calculated.
On the technique in general: Tetrazolium assays rely on reduction of a dye to a coloured formazan, in cell work by metabolically active cells.

Another data set has as its target SARS-CoV-2 Mpro (Severe acute respiratory syndrome coronavirus 2, UniProt P0DTD1). The experiment in a line: SARS-CoV-2 Mpro assay (3CL Protease Assay Kit). Type of data set: biochemical. An excerpt:
The Mpro activity was investigated using the 3CL Protease Assay Kit. The applied protocol and methodology were depicted in the Supplementary Data (SI4). Herein, the present assay was established to assess the newly synthesised candidates (3a–g) inhibitory effects on the SARS-CoV-2 Mpro enzyme as a recommended mechanism of action.
SI 4. Methodology and protocol of 3CL Protease (SARS-CoV-2) assay.
The 3CL Protease Assay Kit is designed to measure 3CL Protease activity for screening and profiling applications, in a homogeneous assay with no time-consuming washing steps. The kit comes in a convenient 96-well format, with purified 3CL Protease, fluorogenic substrate, and 3CL Protease assay buffer for 100 enzyme reactions. 3CL inhibitor GC376 is also included as a positive control.
Add 0.5 M DTT to 3CL Protease Assay Buffer so final DTT concentration is 1 mM. For example, add 10 μl of 0.5 M DTT to 5 ml assay buffer. (DTT should be added just before use. Prepare only enough DTT-containing buffer as required for the assay. Store the remaining assay buffer at - […]
2) Thaw 3CL Protease on ice. Upon first thaw, briefly spin tube containing enzyme to recover the full content of the tube. Aliquot 3CL Protease into single use aliquots. Store remaining undiluted enzyme in aliquots at -80°C. Note: 3CL Protease enzyme is sensitive to freeze/thaw cycles.
3) Dilute 3CL Protease in Assay buffer (with 1 mM DTT) at 3-5 ng/μl (90-150 ng per reaction).
4) Add 30 μl diluted 3CL Protease enzyme solution to wells designated as “Positive Control”, “Inhibitor Control” and “Test Sample”. Add 30 μl Assay buffer (with 1 mM DTT) to the “Blank” wells.
Component Positive Test Sample Inhibitor Blank
Assay Buffer (with DTT) − − − 30 μl […]
Inhibitor Buffer (no inhibitor) 10 μl − − 10 μl […]
5) Dilute 50 μg GC376 in 200 μl water to obtain a 500 μM solution. Aliquot and store remaining solution in aliquots at -80°C. Add 10 μl GC376 (500 μM) to the wells labeled “Inhibitor Control”.
6) Prepare the inhibitor solution.
The final concentration of DMSO in the assay should not exceed 1%. If the inhibitor compound is dissolved in DMSO, make a 100-fold higher concentration of the compound than the highest […]
concentration you want to test in DMSO. Then make a 20-fold dilution in 1X assay buffer (at this step the compound concentration is 5-fold higher than the final concentration).
If the inhibitor compound is dissolved in water, make a solution of the compound 5-fold higher than the final concentration in 3CL Protease assay buffer (with 1 mM DTT). For example, diluting 50 μg GC376 in 200 μl water (step 5) creates a 500 μM solution. Adding 10 ul to the assay (final volume 50 μl) results in a 100 μM final concentration.
7) Add 10 μl inhibitor to each well designated “Test Sample”. Add 10 μl 1X assay buffer or 5% DMSO (depending on which inhibitor solution is used) to “Blank” and “Positive Control” wells.
8) Preincubate enzyme with the inhibitor for 30 min at room temperature with slow shaking.
9) Dilute 5 mM 3CL Protease substrate 1:20 in assay buffer with DTT, to make a 250 μM solution.
Dilute only enough as is required for the assay.
10) Start reaction by adding 10 μl of the substrate solution to each well (Final concentration of the 3CL Protease substrate in a 50 μl reaction is 50 μM).
11) Incubate at room temperature for overnight. Seal the plate with the plate sealer. Measure the fluorescence intensity in a microtiter plate-reading fluorimeter capable of excitation at a wavelength 360 nm and detection of emission at a wavelength 460 nm. The fluorescence intensity can also be measured kinetically. “Blank” value is subtracted from all other values.
SI 5. Molecular dynamics (MD) simulations.
The MD simulations were carried out using Desmond simulation package of Schrödinger LLC.2 The NPT ensemble with the temperature 300 K and a pressure 1 bar was applied in all runs. The simulation length was 100 ns with a relaxation time 1 ps for the ligands. […]

In data set [1] the test system is SARS-CoV-2 [hCoV-19/Egypt/NRC-03/2020]. As to the kind of experiment: SARS-CoV-2 inhibitory assay (IC50 determination, crystal violet) in Vero E6 cells. Type of data set: cell-based. The protocol:
The IC50 for each examined compound (3a–g) which is equivalent to the minimum concentration to inhibit the virus infectivity by 50% compared to the virus control was calculated. The full methodology was depicted in the Supplementary Data (SI3).
as §1, §2, §3, §4, §5

A further data set has as its system SARS-CoV-2. Details: method as in PMID 33352056. As to conditions: in vitro assessment; read-out: EC50 against SARS-CoV-2; cited from earlier work.
Details of data set [2]: method as in PMID 34641339. Particulars: single-dose administration; cited from earlier work.
Setting [3] is: 3CL Protease Assay Kit, read-out: SARS-CoV-2 Mpro IC50 (converted).
Where [4] appears, read: Severe acute respiratory syndrome coronavirus 2, Vero C1008, read-out: IC50 (anti-SARS-CoV-2 activity).
[5] abbreviates: Severe acute respiratory syndrome coronavirus 2, Vero C1008, Vero E6 cells, hCoV-19/Egypt/NRC-03/2020, read-out: IC50 (anti-SARS-CoV-2 activity).
[6] abbreviates: values used for multiple linear regression, read-out: IC50 (Table 4, regression model; SARS-CoV-2 Mpro values) (converted).

In brackets after ≈: the same amount, converted by molar mass. Where two headings read alike, the source gives them in different places.

Regarding `O=C(CNC(=O)OCc1ccccc1)Nc1ncc([N+](=O)[O-])s1` [Compound 3b, Benzyl (2-((5-nitrothiazol-2-yl)amino)-2-oxoethyl)carbamate], the CC50 at 24 h in the data set “MTT cytotoxicity assay” came to 1850 µg/mL (≈ 5.51 mM). In addition, the IC50 – broadly, the concentration that inhibits the measured activity by half – is 15.2 µM on SARS-CoV-2 Mpro (setting [3]), 519 µM in data set [1] (setting [4]) and 175 µg/mL in data set [1] (setting [5]). For the same compound, the “selectivity index (SI = CC50/IC50)” value in data set [1] (Vero E6 cells) came out at 10.
Consider `O=C(Nc1ncc([N+](=O)[O-])s1)[C@@H]1CCCN1C(=O)OCc1ccccc1` [Compound 3f, Benzyl (S)-2-((5-nitrothiazol-2-yl)carbamoyl)pyrrolidine-1-carboxylate], for which, in the data set “MTT cytotoxicity assay”, the CC50 at 24 h came to 2800 µg/mL (≈ 7.44 mM). For the same compound, the results for the IC50 (on SARS-CoV-2 Mpro (setting [6]); in data set [1] (setting [4]); in data set [1] (setting [5])) were 59.4 µM, 3330 µM and 1250 µg/mL, respectively.
For `O=C(N[C@@H](Cc1ccccc1)C(=O)Nc1ncc([N+](=O)[O-])s1)OCc1ccccc1` [Compound 3e, Benzyl (S)-(1-((5-nitrothiazol-2-yl)amino)-1-oxo-3-phenylpropan-2-yl)carbamate], in that order: 2040 µg/mL (≈ 4.78 mM), 38.9 µM, 3010 µM and 1280 µg/mL.
As to `C[C@H](NC(=O)OCc1ccccc1)C(=O)Nc1ncc([N+](=O)[O-])s1` [Compound 3c, Benzyl (S)-(1-((5-nitrothiazol-2-yl)amino)-1-oxopropan-2-yl)carbamate], in the data set “MTT cytotoxicity assay”, the CC50 at 24 h is 2120 µg/mL (≈ 6.05 mM). In addition, the IC50 at SARS-CoV-2 Mpro (setting [6]) was 34 µM; in data set [1] (setting [4]) it was 1990 µM; in data set [1] (setting [5]) it was 698 µg/mL. For the same compound, the “selectivity index (SI = CC50/IC50)” value in data set [1] (Vero E6 cells) stood at 3.
On to `O=C(N[C@@H](Cc1c[nH]c2ccccc12)C(=O)Nc1ncc([N+](=O)[O-])s1)OCc1ccccc1` [Compound 3g, Benzyl (S)-(3-(1H-indol-3-yl)-1-((5-nitrothiazol-2-yl)amino)-1-oxopropan-2-yl)carbamate], for which, in “MTT cytotoxicity assay”, the CC50 at 24 h turned out to be 1630 µg/mL (≈ 3.49 mM). In addition, the IC50 on SARS-CoV-2 Mpro (setting [6]) was 110 µM; in data set [1] (setting [4]), above 1630 µg/mL.
With `CC(=O)Oc1ccccc1C(=O)Nc1ncc([N+](=O)[O-])s1` [nitazoxanide], the EC50 (commonly the concentration at which the effect is half-maximal) in the data set with SARS-CoV-2 is 2.12 µM.
With `Cc1ccc(C(=O)Nc2ncc([N+](=O)[O-])s2)cc1` [Compound 3a, 4-Methyl-N-(5-nitrothiazol-2-yl)benzamide], the CC50 at 24 h in “MTT cytotoxicity assay” came to 1470 µg/mL (≈ 5.57 mM). Further, the results for the IC50 (on SARS-CoV-2 Mpro (setting [3]); in data set [1] (setting [4]); in data set [1] (setting [5])) were 17.7 µM, 5230 µM and 1380 µg/mL, respectively.
Turning to `CC(C)[C@H](NC(=O)OCc1ccccc1)C(=O)Nc1ncc([N+](=O)[O-])s1` [Compound 3d, Benzyl (S)-(3-methyl-1-((5-nitrothiazol-2-yl)amino)-1-oxobutan-2-yl)carbamate], the CC50 at 24 h in “MTT cytotoxicity assay” turned out to be 1200 µg/mL (≈ 3.18 mM). The IC50 on SARS-CoV-2 Mpro (setting [6]) was 235 µM; in data set [1] (setting [4]), above 1200 µg/mL.
As for `CC(C)C(=O)OC[C@H]1O[C@@H](n2ccc(NO)nc2=O)[C@H](O)[C@@H]1O` [molnupiravir], in data set [2], the “biological t1/2” value is on record as 7 h and the “mean Cmax” value is 13.2 ng/mL.
